# Measurements taken from ChEMBL document CHEMBL4411322 (J Med Chem, 2019).
# Active and inactive are the calls of the source. No cut-off for these calls is given here. Non-standard residues stand in square brackets, D forms with d. Residues, ends and D or L forms follow the SMILES beside them. Groups on a side chain read outwards from the residue. *: point of attachment. BODIPY(FL) = CC1=CC(C)=[N+]2C1=Cc1ccc(CCC(=O)*)n1[B-]2(F)F; NMeK = CN[C@@H](CCCCN)C(=O)O; Ahx = NCCCCCC(=O)O
# Columns and labels:
# [1] = Stability in 90% human serum assessed as drug degradation at 1 mM after 15 mins by HPLC analysis; type: ADME, cell-free; details: read-out: Drug degradation
# [2] = Stability in 90% human serum assessed as drug degradation at 1 mM after 60 mins by HPLC analysis; type: ADME, cell-free; details: read-out: Drug degradation
# Integrin alpha-V/beta-6 = Integrin alpha-V/beta-6 (Homo sapiens, UniProt P06756+P18564); test: Inhibition of LAP binding to human integrin alphavbeta6 receptor after 1 hr by solid-phase binding assay; type: protein-complex assay; details: read-out: IC50
# Integrin alpha-V/beta-6, sequence (P06756 31-889 limits assumed): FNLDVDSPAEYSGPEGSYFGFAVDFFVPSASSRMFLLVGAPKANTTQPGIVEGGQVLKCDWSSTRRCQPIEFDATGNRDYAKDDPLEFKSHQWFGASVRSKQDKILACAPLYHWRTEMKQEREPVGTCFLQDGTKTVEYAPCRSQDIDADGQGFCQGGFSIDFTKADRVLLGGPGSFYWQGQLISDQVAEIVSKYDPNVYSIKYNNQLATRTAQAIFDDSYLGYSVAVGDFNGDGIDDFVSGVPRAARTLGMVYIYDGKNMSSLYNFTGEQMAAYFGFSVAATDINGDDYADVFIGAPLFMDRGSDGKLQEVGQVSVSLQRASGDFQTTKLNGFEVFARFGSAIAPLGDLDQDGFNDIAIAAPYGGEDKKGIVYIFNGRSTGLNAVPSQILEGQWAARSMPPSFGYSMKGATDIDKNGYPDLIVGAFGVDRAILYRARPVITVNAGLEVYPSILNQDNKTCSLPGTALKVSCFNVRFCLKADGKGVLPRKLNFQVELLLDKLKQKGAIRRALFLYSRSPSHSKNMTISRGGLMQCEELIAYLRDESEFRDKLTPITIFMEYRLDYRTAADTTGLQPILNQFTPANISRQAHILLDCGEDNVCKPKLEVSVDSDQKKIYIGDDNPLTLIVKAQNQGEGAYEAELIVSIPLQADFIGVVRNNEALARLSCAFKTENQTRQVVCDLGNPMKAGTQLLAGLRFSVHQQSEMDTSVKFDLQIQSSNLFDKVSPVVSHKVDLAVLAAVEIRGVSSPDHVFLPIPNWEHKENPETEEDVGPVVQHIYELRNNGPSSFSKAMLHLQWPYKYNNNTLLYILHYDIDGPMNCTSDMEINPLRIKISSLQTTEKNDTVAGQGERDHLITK
# Integrin alpha-V/beta-6, sequence (P06756 891-1048 limits assumed): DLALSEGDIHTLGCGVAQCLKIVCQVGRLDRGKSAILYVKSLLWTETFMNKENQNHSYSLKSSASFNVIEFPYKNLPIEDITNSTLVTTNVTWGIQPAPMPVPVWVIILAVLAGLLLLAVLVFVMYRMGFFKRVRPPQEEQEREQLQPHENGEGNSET
# Integrin alpha-V/beta-6, sequence (P18564 22-788 limits assumed): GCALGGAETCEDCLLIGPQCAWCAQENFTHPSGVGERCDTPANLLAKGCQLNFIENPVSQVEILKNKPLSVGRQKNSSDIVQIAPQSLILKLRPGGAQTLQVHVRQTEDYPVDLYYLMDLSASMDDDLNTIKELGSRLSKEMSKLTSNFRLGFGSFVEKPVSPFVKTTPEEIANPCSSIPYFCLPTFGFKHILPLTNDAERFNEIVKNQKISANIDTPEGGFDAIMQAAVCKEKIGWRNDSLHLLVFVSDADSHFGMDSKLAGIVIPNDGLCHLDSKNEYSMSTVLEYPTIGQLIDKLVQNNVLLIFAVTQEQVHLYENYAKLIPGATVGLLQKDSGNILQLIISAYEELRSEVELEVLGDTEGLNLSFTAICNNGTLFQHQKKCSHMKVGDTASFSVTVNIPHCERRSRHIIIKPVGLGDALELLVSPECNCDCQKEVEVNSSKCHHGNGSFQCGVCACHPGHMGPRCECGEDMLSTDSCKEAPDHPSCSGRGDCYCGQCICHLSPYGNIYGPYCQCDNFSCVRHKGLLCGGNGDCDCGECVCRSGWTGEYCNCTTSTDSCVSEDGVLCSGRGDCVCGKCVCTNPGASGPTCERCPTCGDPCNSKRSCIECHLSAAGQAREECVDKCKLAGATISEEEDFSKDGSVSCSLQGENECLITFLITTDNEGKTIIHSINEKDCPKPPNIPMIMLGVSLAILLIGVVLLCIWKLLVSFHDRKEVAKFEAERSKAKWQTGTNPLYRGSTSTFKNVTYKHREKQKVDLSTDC
# Integrin alpha-V/beta-8 [3] = molecular target: T1, Integrin alpha-V/beta-8 (Homo sapiens, UniProt P06756+P26012); test: Inhibition of LAP binding to human integrin alphavbeta8 receptor after 1 hr by solid-phase binding assay; type: protein-complex assay; details: read-out: IC50
# Target sequence in this assay (P06756 31-889 limits assumed): as the sequence (P06756 31-889 limits assumed) above
# Target sequence in this assay (P06756 891-1048 limits assumed): as the sequence (P06756 891-1048 limits assumed) above
# Target sequence in this assay (P26012 43-769 limits assumed): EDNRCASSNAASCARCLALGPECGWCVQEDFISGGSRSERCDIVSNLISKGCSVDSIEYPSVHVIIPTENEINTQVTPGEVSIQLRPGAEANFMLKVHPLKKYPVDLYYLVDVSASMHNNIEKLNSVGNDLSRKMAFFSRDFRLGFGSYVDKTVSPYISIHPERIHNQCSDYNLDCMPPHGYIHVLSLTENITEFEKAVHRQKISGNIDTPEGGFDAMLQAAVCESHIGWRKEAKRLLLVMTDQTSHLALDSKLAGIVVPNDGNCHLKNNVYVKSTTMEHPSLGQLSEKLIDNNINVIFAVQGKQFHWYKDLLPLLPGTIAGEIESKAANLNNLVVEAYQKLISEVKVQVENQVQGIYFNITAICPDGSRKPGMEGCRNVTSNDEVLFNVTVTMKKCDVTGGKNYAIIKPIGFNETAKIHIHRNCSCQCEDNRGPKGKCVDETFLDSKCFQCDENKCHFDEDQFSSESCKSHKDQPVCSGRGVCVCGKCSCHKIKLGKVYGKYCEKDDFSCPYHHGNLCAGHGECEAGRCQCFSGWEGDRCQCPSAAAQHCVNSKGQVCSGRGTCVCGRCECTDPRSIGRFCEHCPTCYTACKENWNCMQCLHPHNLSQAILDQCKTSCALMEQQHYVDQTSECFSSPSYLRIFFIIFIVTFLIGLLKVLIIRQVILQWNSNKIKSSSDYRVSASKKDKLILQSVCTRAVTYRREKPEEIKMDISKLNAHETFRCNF
# Homo sapiens = organism: Homo sapiens; test: Selectivity ratio of IC50 for human integrin alphavbeta6 receptor to IC50 for human integrin alphavbeta8 receptor
# Integrin alpha-V/beta-3 = Integrin alpha-V/beta-3 (Homo sapiens, UniProt P05106+P06756); test: Inhibition of human vitronectin binding to human integrin alphavbeta3 receptor after 1 hr by solid-phase binding assay; type: protein-complex assay
# Integrin alpha-V/beta-3, sequence (P05106 27-788 limits assumed): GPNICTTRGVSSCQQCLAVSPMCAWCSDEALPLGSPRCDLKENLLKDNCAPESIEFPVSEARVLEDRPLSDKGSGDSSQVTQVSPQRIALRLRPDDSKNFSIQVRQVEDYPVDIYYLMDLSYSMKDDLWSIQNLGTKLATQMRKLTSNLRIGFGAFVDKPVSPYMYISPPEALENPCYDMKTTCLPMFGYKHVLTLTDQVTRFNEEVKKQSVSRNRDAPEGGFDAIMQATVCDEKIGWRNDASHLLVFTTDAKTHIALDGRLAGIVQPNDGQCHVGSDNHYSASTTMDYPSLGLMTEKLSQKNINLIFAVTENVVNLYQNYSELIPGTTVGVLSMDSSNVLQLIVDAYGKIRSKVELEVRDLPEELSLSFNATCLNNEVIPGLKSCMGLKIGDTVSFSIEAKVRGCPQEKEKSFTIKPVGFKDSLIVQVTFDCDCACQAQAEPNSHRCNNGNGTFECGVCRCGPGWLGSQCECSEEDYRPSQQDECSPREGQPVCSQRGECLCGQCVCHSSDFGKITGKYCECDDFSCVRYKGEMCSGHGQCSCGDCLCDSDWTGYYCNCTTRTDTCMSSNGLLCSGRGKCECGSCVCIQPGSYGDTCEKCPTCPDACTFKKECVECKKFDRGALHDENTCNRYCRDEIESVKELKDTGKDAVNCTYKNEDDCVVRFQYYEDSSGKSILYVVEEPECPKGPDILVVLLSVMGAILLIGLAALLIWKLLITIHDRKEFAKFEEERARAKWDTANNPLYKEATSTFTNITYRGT
# Integrin alpha-V/beta-3, sequence (P06756 31-889 limits assumed): as the sequence (P06756 31-889 limits assumed) above
# Integrin alpha-V/beta-3, sequence (P06756 891-1048 limits assumed): as the sequence (P06756 891-1048 limits assumed) above
# Integrin alpha-V/beta-5 = Integrin alpha-V/beta-5 (Homo sapiens, UniProt P06756+P18084); test: Inhibition of human vitronectin binding to human integrin alphavbeta5 receptor after 1 hr by solid-phase binding assay; type: protein-complex assay
# Integrin alpha-V/beta-5, sequence (P06756 31-889 limits assumed): as the sequence (P06756 31-889 limits assumed) above
# Integrin alpha-V/beta-5, sequence (P06756 891-1048 limits assumed): as the sequence (P06756 891-1048 limits assumed) above
# Integrin alpha-V/beta-5, sequence (P18084 24-799 limits assumed): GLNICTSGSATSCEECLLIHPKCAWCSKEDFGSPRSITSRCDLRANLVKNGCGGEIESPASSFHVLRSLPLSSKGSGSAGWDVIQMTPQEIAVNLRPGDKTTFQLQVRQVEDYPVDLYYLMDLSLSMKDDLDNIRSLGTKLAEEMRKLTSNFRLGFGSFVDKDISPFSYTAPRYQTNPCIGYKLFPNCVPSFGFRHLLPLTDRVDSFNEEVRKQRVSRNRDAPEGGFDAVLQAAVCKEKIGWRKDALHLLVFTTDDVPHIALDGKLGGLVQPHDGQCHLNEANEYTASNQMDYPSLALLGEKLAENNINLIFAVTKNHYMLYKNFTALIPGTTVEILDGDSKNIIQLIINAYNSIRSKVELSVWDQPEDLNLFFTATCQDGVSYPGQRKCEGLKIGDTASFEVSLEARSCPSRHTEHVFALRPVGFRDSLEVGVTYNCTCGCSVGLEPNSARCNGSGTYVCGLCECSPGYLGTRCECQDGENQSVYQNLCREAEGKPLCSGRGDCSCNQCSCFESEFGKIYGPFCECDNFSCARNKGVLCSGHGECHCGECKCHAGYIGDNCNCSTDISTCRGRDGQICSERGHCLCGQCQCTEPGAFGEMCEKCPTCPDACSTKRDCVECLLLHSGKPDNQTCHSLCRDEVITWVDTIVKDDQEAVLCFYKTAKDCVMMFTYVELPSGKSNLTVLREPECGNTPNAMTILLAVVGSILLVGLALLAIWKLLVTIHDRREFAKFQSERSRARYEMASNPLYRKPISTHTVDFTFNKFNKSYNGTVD
# Integrin alpha-5/beta-1 = Integrin alpha-5/beta-1 (Homo sapiens, UniProt P05556+P08648); test: Inhibition of human fibronectin binding to human integrin alpha5beta1 receptor after 1 hr by solid-phase binding assay; type: protein-complex assay
# [4] = molecular target: Integrin alpha-IIb/beta-3 (Homo sapiens, UniProt P05106+P08514); test: Inhibition of human fibrinogen binding to human platelet integrin alpha2b-beta3 receptor after 1 hr by solid-phase binding assay
# [5] = Stability in 90% human serum assessed as drug degradation at 1 mM after 180 mins by HPLC analysis; type: ADME, cell-free; details: 3 h, 1000 µM
# Integrin alpha-V/beta-8 [6] = molecular target: T1, Integrin alpha-V/beta-8; test: Binding affinity to alphavbeta8 in TGF-beta1 stimulated human REC cells assessed as fluorescence intensity at 10 uM after 1 hr using fluorescence-labeled compound by immunocytochemical analysis
# Integrin alpha-V/beta-8 [7] = molecular target: T1, Integrin alpha-V/beta-8; test: Binding affinity to alphavbeta8 in human REC cells assessed as fluorescence intensity at 10 uM after 1 hr using BDP FL-labeled compound by immunocytochemical analysis; type: cell-based
# Integrin alpha-V/beta-8 [8] = molecular target: T1, Integrin alpha-V/beta-8; test: Binding affinity to alphavbeta8 in human BHY cells assessed as fluorescence intensity at 10 uM after 1 hr using BDP FL-labeled compound by immunocytochemical analysis; type: cell-based
# Integrin alpha-V/beta-8 [9] = molecular target: T1, Integrin alpha-V/beta-8; test: Binding affinity to alphavbeta8 in human HN cells assessed as fluorescence intensity at 10 uM after 1 hr using BDP FL-labeled compound by immunocytochemical analysis; type: cell-based
# Integrin alpha-V/beta-8 [10] = molecular target: T1, Integrin alpha-V/beta-8; test: Binding affinity to alphavbeta8 in TGF-beta1 stimulated human BHY cells assessed as fluorescence intensity at 10 uM after 1 hr using fluorescence-labeled compound in presence of 10 molar excess peptide 2 by immunocytochemical analysis; type: cell-based
# Integrin alpha-V/beta-8 [11] = molecular target: T1, Integrin alpha-V/beta-8; test: Binding affinity to alphavbeta8 in TGF-beta1 stimulated human HN cells assessed as fluorescence intensity at 10 uM after 1 hr using in presence of 10 to 20 molar excess peptide 2 by immunocytochemical analysis relative to control
# Integrin alpha-V/beta-8 [12] = molecular target: T1, Integrin alpha-V/beta-8; test: Binding affinity to alphavbeta8 in TGF-beta1 stimulated human BHY cells assessed as fluorescence intensity at 10 uM after 1 hr using fluorescence-labeled compound in presence of 10 molar excess peptide 1a by immunocytochemical analysis; type: cell-based
# Integrin alpha-V/beta-8 [13] = molecular target: T1, Integrin alpha-V/beta-8; test: Binding affinity to alphavbeta8 in TGF-beta1 stimulated human BHY cells assessed as fluorescence intensity at 10 uM after 1 hr using in presence of 5 to 100 molar excess peptide 1a by immunocytochemical analysis relative to control; type: cell-based
SMILES,"metabolised at 0.25 h, 1000 µM [1]","metabolised at 1 h, 1000 µM [2]",IC50 (Integrin alpha-V/beta-6),IC50 (Integrin alpha-V/beta-8 [3]),Ratio IC50 (Homo sapiens),IC50 (Integrin alpha-V/beta-3),IC50 (Integrin alpha-V/beta-5),IC50 (Integrin alpha-5/beta-1),IC50 [4],Stability [5],Activity (Integrin alpha-V/beta-8 [6]),Activity (Integrin alpha-V/beta-8 [7]),Activity (Integrin alpha-V/beta-8 [8]),Activity (Integrin alpha-V/beta-8 [9]),Activity (Integrin alpha-V/beta-8 [10]),Activity (Integrin alpha-V/beta-8 [11]),Activity (Integrin alpha-V/beta-8 [12]),Activity (Integrin alpha-V/beta-8 [13])
CC(C)C[C@H](NC(=O)[C@H](CO)NC(=O)[C@H](CC(=O)O)NC(=O)[C@H](CC(C)C)NC(=O)[C@H](CC(=O)O)NC(=O)[C@@H](NC(=O)[C@@H](N)CCCNC(=N)N)[C@@H](C)O)C(=O)N[C@@H](CCCNC(=N)N)C(=O)N[C@H](C(=O)O)[C@@H](C)O,56%,100%,,,,,,,,,,,,,,,,
CC(=O)NCCCC[C@H]1C(=O)NCC(=O)N[C@@H](CC(C)C)C(=O)N[C@@H](CCCNC(=N)N)C(=O)NCC(=O)N[C@@H](CC(=O)O)C(=O)N[C@@H](CC(C)C)C(=O)N2CCC[C@@H]2C(=O)N1C (cyclo(RGDL[dP][NMeK](Ac)GL)),,,99 nM,8 nM,12,343 nM,> 1000 nM,> 1000 nM,> 1000 nM,Stable,,,,,,,,
CC1=CC(C)=[N+]2C1=Cc1ccc(CCC(=O)NCCCCCC(=O)NCCCC[C@H]3C(=O)NCC(=O)N[C@@H](CC(C)C)C(=O)N[C@@H](CCCNC(=N)N)C(=O)NCC(=O)N[C@@H](CC(=O)O)C(=O)N[C@@H](CC(C)C)C(=O)N4CCC[C@@H]4C(=O)N3C)n1[B-]2(F)F (cyclo(RGDL[dP][NMeK]([Ahx-BODIPY(FL)])GL)),,,47 nM,0.06 nM,,43 nM,> 1000 nM,689 nM,> 1000 nM,,Active,Active,Active,Active,inactive,50%,inactive,inactive
